According to patent US8697637B2, “Antimicrobial peptides of the cecropin family and therapeutic uses thereof” (Institut de Recherche pour le Developpement (IRD), priority 2010, dated 2014):
≈ marks a conversion by molar mass, not a printed value. Where a SMILES comes first, the peptide text is derived from it.

What was measured:
Type in all cases: cell-based
[1] = test system: Escherichia coli (Gram negative); settings: E. coli, LB medium, 37° C., 24 hours, complete inhibition of growth
Experimental: (§1) The bacteria Escherichia coli (Gram negative) and Micrococcus luteus (Gram positive) are cultivated in an LB (Luria-Bertani) culture medium with and without the peptides GK36 and MK61 to be tested. The bacterial growth is checked after incubation for one night at 37° C. by measuring the change in the absorbance value at 600 nanometres (A600) with the aid of a microplate spectrophotometer. The peptides MK61 and GK36 are incubated for 24 hours with the Gram negative and Gram positive bacteria. The minimum inhibitory concentration (MIC) of the synthetic peptides GK36 and MK61 represents the lowest peptide concentration that is sufficient to inhibit bacterial growth completely.
(§2) The results obtained are shown in FIG. 1 for the bacterium Escherichia coli (Gram negative) and in FIG. 2 for the bacterium Micrococcus luteus (Gram positive).

[2] = test system: Micrococcus luteus (Gram positive); experiment: Antibacterial test, bacterial growth in LB medium (A600), MIC; settings: 37° C., 24 hours, complete inhibition of growth
Experimental: as §1, §2

[3] = test system: dengue virus serotype 2 "DENV-2"; experiment: Inhibition of the infection of dendritic cells by the dengue virus (real-time PCR); settings: peptide at 2.5 μg/ml, DENV-2 MOI 0.4, 48 hours
Experimental: The dendritic cells are incubated for 3 hours at 37° C. in the presence of the dengue virus (they are infected at an “MOI” (“multiplicity of infection”) of 0.4) with and without the peptides MK61 and GK36 to be tested, which are prepared at concentrations of 2.5 μg/ml and 12 μg/ml for MK61 and 2.5 μg/ml for GK36. The supernatant is then withdrawn and the cells are or are not brought into contact with peptide for 48 hours.
Real-time PCR analyses are then carried out. The cell viability is evaluated by flow cytometry, and no cell toxicity is observed.

DENV-1 = experiment: Inhibition of the infection of C6/36 cells by the dengue virus (RT-PCR); settings: C6/36 cells of Aedes albopictus, 5 or 10 μg/ml, 12 or 24 hours, RT-PCR bands
Experimental: (§3) The C6/36 cells of Aedes albopictus mosquitoes are incubated for one hour at 4° C. with the various dengue viruses ((serotype 1) “DENV-1” or (serotype 2) “DENV-2” or (serotype 3) “DENV-3” or (serotype 4) “DENV-4”) (with “PFUs” (“plaque forming units”) of 1). The cells are then washed three times and incubated for 12 hours or 24 hours at 28° C. in the presence or absence of the peptides GK36 and MK61 to be tested, which are each prepared at concentrations of 5 μg/ml or 10 μg/ml.
(§4) RT-PCR analyses are then carried out on the cell pellets in order to detect the presence of the dengue virus.

DENV-2 = experiment: as above; settings: C6/36 cells of Aedes albopictus, 5 or 10 μg/ml, 12 or 24 hours, RT-PCR bands
Experimental: as §3, §4

DENV-3 = experiment: as above; settings: C6/36 cells of Aedes albopictus, 5 or 10 μg/ml, 12 or 24 hours, RT-PCR bands
Experimental: as §3, §4

DENV-4 = experiment: as above; settings: C6/36 cells of Aedes albopictus, 5 or 10 μg/ml, 12 or 24 hours, RT-PCR bands
Experimental: as §3, §4

CHIKV-147-2 GFP virus = experiment: Inhibition of the infection of HEK-293T cells by chikungunya virus (GFP, flow cytometry); settings: MOI 1, peptide at 10, 50 and 80 μg/ml, 48 hours
Experimental: The cells, which come from the human cell line HEK-293T (human embryonic kidney 293), are incubated for 2 hours at 37° C. in the presence of CHIKV-147-2 GFP virus (they are infected at an “MOI” of 1) with and without the peptides GK36 and MK61 to be tested, which are each prepared at concentrations of 10 μg/ml, 50 μg/ml and 80 μg/ml. The supernatant is then withdrawn and the cells are or are not brought into contact with peptides for 48 hours. The percentage of cells infected corresponds to the percentage of GFP (“green fluorescent protein”) cells visualised by flow cytometry (10,000 cells were counted per condition).

parasite = experiment: Antiparasitic activity (general statement); settings: general statement in the description

With CC[C@H](C)[C@H](NC(=O)CNC(=O)[C@@H](NC(=O)[C@@H](NC(=O)[C@@H](NC(=O)[C@@H]1CCCN1C(=O)[C@H](CC(C)C)NC(=O)[C@H](C)NC(=O)[C@H](CCCCN)NC(=O)[C@H](CCC(=O)O)NC(=O)[C@H](CO)NC(=O)[C@H](C)NC(=O)[C@H](CCCCN)NC(=O)[C@H](Cc1ccccc1)NC(=O)[C@@H](NC(=O)[C@H](CCCNC(=N)N)NC(=O)[C@H](CCCCN)NC(=O)CNC(=O)[C@H](C)NC(=O)CNC(=O)[C@H](CCC(=O)O)NC(=O)[C@H](CC(C)C)NC(=O)[C@H](CCCCN)NC(=O)[C@H](CCCCN)NC(=O)CNC(=O)[C@H](CC(C)C)NC(=O)[C@H](CCCCN)NC(=O)[C@H](CCCCN)NC(=O)[C@H](CC(C)C)NC(=O)CNC(=O)CN)C(C)C)C(C)C)C(C)C)C(C)C)C(=O)N[C@@H](CCCCN)C(=O)N[C@@H](C)C(=O)N[C@H](C(=O)NCC(=O)N[C@@H](CCCCN)C(=O)O)[C@@H](C)CC [GK36] (H-GGLKKLGKKLEGAGKRVFKASEKALPVVVGIKAIGK-OH; N-terminus and C-terminus assumed) the “minimum inhibitory concentration (MIC)” value [1] was 0.6 µM (≈ 2.21 µg/mL), the “minimum inhibitory concentration (MIC)” value [2] was 10 µM (≈ 36.8 µg/mL) and the “inhibition of the infection of the dendritic cells” value [3] was 35%. The “inhibition of the infection of C6/36 cells by dengue-1 virus” value (DENV-1) was “inhibit the infection”, the “inhibition of the infection of C6/36 cells by dengue-2 virus” value (DENV-2) was “inhibit the infection” and the “inhibition of the infection of C6/36 cells by dengue-3 virus” value (DENV-3) was “inhibit the infection”. For the same compound, the “inhibition of the infection of C6/36 cells by dengue-4 virus” value (DENV-4) was “inhibit the infection”, the “inhibition of the infection of HEK-293T cells” value (CHIKV-147-2 GFP virus) was “inhibits the infection of the HEK-293T cells” and the antiparasitic activity (parasite) was “does not exhibit antiparasitic activity”.
